From the supplement of paper PMC10307832

The cell lines below were run with O=C(O)C(Cc1ccccc1[N+](=O)[O-])=NNc1nc(-c2ccc(Cl)c(Cl)c2)cs1 (mixture of isomers) [4EGI-1] + C[C@@H](Oc1cc(-c2cnn(C3CCNCC3)c2)cnc1N)c1c(Cl)ccc(F)c1Cl [Crizotinib] (partner 1 µM) (assay: relative viability (nuclei count vs DMSO), 5 days (fraction); higher = more cells survive). Conditions: first compound 50 µM.
In short: (§1)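 Relative viability is defined as nuclei in treated wells over nuclei in vehicle wells. Duplicate plates were run and medians reported. Lung cancer cell lines in 1536-well plates were dosed by pin tool one day after seeding, with one drug or with a fixed anchor-drug dose plus five library-drug doses (not always all listed) in √10 steps, and nuclei were counted after 5 days.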

Row | Cell Line | relative viability
1 | HCC-15 | 0.598
2 | HCC-44 | 0.186
3 | HCC-78 | 0.373
4 | HCC-366 | 0.529
5 | HCC-827 | 0.685
6 | HOP-62 | 0.574
7 | IA-LM | 0.0835
8 | LC-2-ad | 0.411
9 | LCLC-97TM1 | 0.172
10 | LCLC-103H | 1.05
11 | LK-2 | 0.216
12 | NCI-H358 | 0.247
13 | NCI-H1299 | 0.386
14 | NCI-H1563 | 0.627
15 | NCI-H1703 | 0.269
16 | NCI-H1944 | 0.599
17 | NCI-H2170 | 0.586
18 | NCI-H2228 | 0.195
19 | SK-MES-1 | 0.921

The cell lines below were run with CN1CCN(CC1)C2=CC(=C(C=C2)NC3=NC=C4C(=N3)N(C5=CC=CC=C5C(=O)N4C)C)OC [XMD8-85] + CC(C)C[C@H](NC(=O)[C@H](Cc1ccccc1)NC(=O)c1cnccn1)B(O)O [Bortezomib] (partner 0.002 µM) in the same assay as above. Conditions: first compound 0.08 µM.
In short: as §1

Row | Cell Line | relative viability
20 | 201T | 1.08
21 | A-427 | 1.04
22 | ABC-1 | 0.246
23 | BEN | 0.795
24 | CAL-12T | 0.979
25 | COR-L23 | 1.05
26 | COR-L 105 | 0.759
27 | Calu-6 | 1.16
28 | ChaGo-K-1 | 0.905
29 | EBC-1 | 0.551
30 | EKVX | 1.08
31 | EMC-BAC-2 | 1.06
32 | H3255 | 0.856
33 | HARA | 1.08
34 | HCC-15 | 0.948
35 | HCC-44 | 0.938
36 | HCC-78 | 0.639
37 | HCC-366 | 0.91
38 | HCC-827 | 1.16
39 | HOP-62 | 0.646
40 | IA-LM | 0.814
41 | LC-2-ad | 1.04
42 | LCLC-97TM1 | 0.473
43 | LCLC-103H | 1.07
44 | NCI-H1299 | 1.07
45 | NCI-H1563 | 0.848
46 | NCI-H1703 | 0.28
47 | NCI-H2228 | 1.15

Same assay, conditions: first compound 0.253 µM

Row | Cell Line | relative viability
48 | 201T | 1.06
49 | A-427 | 1.05
50 | ABC-1 | 0.254
51 | BEN | 0.808
52 | CAL-12T | 0.95
53 | COR-L23 | 0.962
54 | COR-L 105 | 0.628
55 | Calu-6 | 0.973
56 | ChaGo-K-1 | 1.07
57 | EBC-1 | 0.472
58 | EKVX | 1.11
59 | EMC-BAC-2 | 1.05
60 | EPLC-272H | 0.831
61 | H3255 | 0.787
62 | HARA | 1.01
63 | HCC-15 | 1
64 | HCC-44 | 0.911
65 | HCC-78 | 0.455
66 | HCC-366 | 0.815
67 | HCC-827 | 1.1
68 | HOP-62 | 0.698
69 | LC-2-ad | 0.976
70 | LCLC-97TM1 | 0.357
71 | LCLC-103H | 1.23
72 | NCI-H1299 | 1.09
73 | NCI-H1563 | 0.855
74 | NCI-H1703 | 0.267
75 | NCI-H2228 | 0.872

Same assay, conditions: first compound 0.8 µM

Row | Cell Line | relative viability
76 | 201T | 1.1
77 | A-427 | 0.948
78 | ABC-1 | 0.302
79 | BEN | 0.839
80 | CAL-12T | 0.864
81 | COR-L23 | 1.17
82 | COR-L 105 | 0.699
83 | Calu-6 | 1.04
84 | ChaGo-K-1 | 1.18
85 | EBC-1 | 0.434
86 | EKVX | 1.09
87 | EMC-BAC-2 | 1.1
88 | EPLC-272H | 0.928
89 | HARA | 1.26
90 | HCC-15 | 1.14
91 | HCC-44 | 0.816
92 | HCC-78 | 0.375
93 | HCC-366 | 1.08
94 | HCC-827 | 1.05
95 | HOP-62 | 0.863
96 | IA-LM | 0.836
97 | LC-2-ad | 0.99
98 | LCLC-97TM1 | 0.841
99 | LCLC-103H | 1.03
100 | NCI-H1299 | 1.02
101 | NCI-H1703 | 0.306
102 | NCI-H2228 | 0.924

Same assay, conditions: first compound 2.53 µM

Row | Cell Line | relative viability
103 | 201T | 1.07
104 | A-427 | 1.18
105 | ABC-1 | 0.252
106 | BEN | 0.549
107 | CAL-12T | 0.964
108 | COR-L23 | 0.957
109 | COR-L 105 | 0.677
110 | Calu-6 | 1.05
111 | ChaGo-K-1 | 1.37
112 | EBC-1 | 0.297
113 | EKVX | 1.13
114 | EMC-BAC-2 | 1.16
115 | EPLC-272H | 0.814
116 | H3255 | 0.741
117 | HARA | 1.16
118 | HCC-15 | 1.15
119 | HCC-44 | 0.962
120 | HCC-78 | 0.495
121 | HCC-366 | 1.1
122 | HCC-827 | 0.978
123 | HOP-62 | 0.719
124 | LC-2-ad | 0.921
125 | LCLC-97TM1 | 0.72
126 | LCLC-103H | 1.05
127 | NCI-H1299 | 0.996
128 | NCI-H1563 | 0.839
129 | NCI-H1703 | 0.345
130 | NCI-H2228 | 1.04

Same assay, conditions: first compound 8 µM

Row | Cell Line | relative viability
131 | 201T | 0.917
132 | A-427 | 0.893
133 | ABC-1 | 0.22
134 | BEN | 0.416
135 | CAL-12T | 0.584
136 | COR-L23 | 0.691
137 | COR-L 105 | 0.309
138 | Calu-6 | 0.78
139 | ChaGo-K-1 | 0.357
140 | EBC-1 | 0.329
141 | EKVX | 1
142 | EMC-BAC-2 | 0.965
143 | EPLC-272H | 0.571
144 | H3255 | 0.29
145 | HARA | 0.866
146 | HCC-15 | 0.926
147 | HCC-44 | 0.679
148 | HCC-78 | 0.316
149 | HCC-366 | 1.09
150 | HCC-827 | 1.02
151 | HOP-62 | 0.681
152 | IA-LM | 0.163
153 | LCLC-97TM1 | 0.204
154 | LCLC-103H | 1.01
155 | NCI-H1299 | 0.781
156 | NCI-H1563 | 0.645
157 | NCI-H1703 | 0.196
158 | NCI-H2228 | 0.582
